Test results taken from patent US20230277449A1, “ORAL CAVITY POLYMERIC DELIVERY SYSTEMS” (YISSUM RESEARCH DEVELOPMENT COMPANY OF THE HEBREW …, priority 2020, published 2023).
Like-named read-outs stand apart in the source and are kept apart here.

What was measured:
[1] = Ex-vivo permeability of APO, MTP and ATN in Ussing diffusion chamber; format: in vitro ADME, pig
From the text: Each chamber includes a heating block for temperature control and needle valves for adjustment of carbogen gas flow for oxygenation and gas lift stirring. Buccal tissues of female pigs, ~100 kg, were used in the experiments. Pigs were exposed to anesthetic agents, antibiotics, contrast agents and sacrificed by over exposure to KC1. […] Immediately following euthanasia, buccal tissue was removed and placed in ice-cold modified Ringer’s buffer (pH 7.4). Buccal mucosa segments were trimmed to 800-1000 µm by surgical scissors and tweezers and mounted into Ussing diffusion chambers. The exposed tissue surface area was 0.5 cm^2 and buffered solutions volume in each cell was 3 ml. The system was preheated to 35° C. Modified Ringer buffer was added to the receiver compartment and simulated saliva buffer to the donor side. The tissue oxygenation and the solution mixing were performed by bubbling with carbogen gas. The system was equilibrated for 30 min followed by replacing the solutions and adding 20 µl of the test solutions to the donor side of the chamber to commence the experiment.
Solutions were freshly prepared on the days of the experiments. […] When testing the effect of organic solvents, 100 µl of the simulated saliva in the donor chamber were replaced by 100 µl of 1:1EtOH:PG solution. When testing the effect of NLF 70 µl of the simulated saliva in the donor chamber were replaced by 70 µl of NLF. […] The constituents are melted at 37° C. and mixed until a clear yellow homogenous solution is obtained.
3.1.3 Experimental protocol: 100 µl samples were taken from receiver compartment at the beginning of the experiments, at half an hour and every hour until the end of the experiments. 100 µl of fresh Ringer’s buffer solution were added each time to receiver compartment. The dilution of the concentration of tested substances in the receiver compartment was accounted for. […] All samples were stored at -20° C. pending analysis.
The analysis conditions were as follows: XTerra MS (Waters Inc.) C18 Column (3.5 µm, 2.1 mm × 100 mm), temperature 45° C., flow rate 0.2 ml/min and mobile phase with a linear gradient as detailed in Table 23.
Statistical significance was stated for p<0.05. […] Papp calculation and simulations of steady state plasma levels for in-vivo testing
Apparent permeability (Papp) is calculated by Eq. 5: […]

[2] = Ex-vivo - in-vivo correlation (Jss and Css calculated from Papp for pig)
Description: where dQ/dt is the amount of test substance permeated over time and A is the area of buccal mucosa available for permeation. Plasma levels at steady state (Css) of the test substance following in-vivo buccal administration are calculated by Eq. 2:
Apparent permeability (Papp) is calculated by Eq. 3:
where Co is the initial concentration of the test substance near the buccal mucosa in the ABPD at the beginning of the experiment.

[3] = Intravenous administration of APO to rats; format: in vivo; conditions: male, Wistar, rat, plasma, 2.0 mg/kg IV
Description: Prior to surgery rats were fasted overnight with free access to water. Animals were anesthetized for the period of surgery by intra-peritoneal injection of 1 ml/kg of ketamine-xylazine solution (9:1, respectively). An indwelling cannula was placed in the right jugular vein of each animal for systemic blood sampling. After the surgery, rats were returned to cages overnight with free access to food and water.
Following this analysis, PK parameters were obtained.

[4] = Monitored vital parameters after IV APO in pigs; format: in vivo, pig; conditions: 1 mg/kg IV APO, mean (lowest - highest)
From the text: Pigs were fasted overnight before the experiments. […] Pigs were positioned on their back.

[5] = cited from earlier work
[6] = cited from earlier work; remark: listed apart in the source
[7] = In-vivo permeability study on rats (buccal administration)
[8] = Simulation of rat plasma levels after buccal administration; conditions: rat 330 gr, Co = 19 mg/ml, A = 0.2 cm^2, Papp = 0.51*10^-6 cm/sec
From the text: Papp through porcine buccal mucosa was selected (as lower Papp is of no clinical relevance).

[9] = IV administration of APO to pigs, pharmacokinetics; conditions: female, pig, plasma, 1 mg/kg
Description: 2.1.7 In-vivo protocol of IV administration: Domestic female pigs (sus scrofa domesticus) of 35-40 kg were allowed to acclimate before the experiment. Pigs were fasted overnight before the experiments. On the morning of the experiment pigs were anesthetized by xylazine 1 mg/kg, midazolam 0.04 mg/kg, ketamine 5 mg/kg and propofol 4 mg/kg. Pigs were positioned on their back. Endotracheal tube was inserted, and pigs were respired with oxygen. […] Catheter was inserted into ear vein through which physiological saline was administered. Pigs received amoxicillin 15 mg/kg antibiotic and tolfenamic acid 2 mg/kg analgesic. An intra-jugular catheter was inserted for blood sampling. Pigs were constantly monitored for their respiration rate, rectal temperature, O2 saturation, heart rate and blood pressure. Cardiovascular parameters were obtained by blood pressure monitor with porcine adapted front leg cuff. […] Plasma was collected into tubes containing 10 µl mercaptoethanol and stored at -80° C. pending analysis. Isoflurane anesthesia was terminated, and pigs were recovered under veterinary surveillance to consciousness.
The samples were reconstituted in 100 µl 1:4 MeOH:DDW solution containing 0.01%^v/v formic acid and 0.1%^v/v mercaptoethanol and injected into LC-MS-MS system.
2.1.12 Chromatographic analysis of in-vivo samples: The chromatography was performed using a Shimadzu UHPLC System. The chromatographic separations were performed on a Kinetex™ (Phenomenex, CA, USA) column (EVO C18, 2.6 µm, 100 Å, 100 × 2.1 mm), protected by a SecurityGuard™ (Phenomenex, CA, USA) ULTRA cartridge (C18, 4 × 2 mm). The injection volume was 5 µl, temperature was 40° C.
Following this analysis PK parameters were obtained.

[10] = APO release from hydrogel-based core through dialysis bag; format: physicochemical; conditions: 20 mg APO in 0.5 ml hydrogel pH 5.9, dialysis bag
Description: DDW. 100.0, 120.0 or 150 mg fish gelatin were added. No gelatin was added to the fourth group. All work was done in triplicates. After vigorous stirring full dissolution to homogenous solution was achieved. The pH of the solutions was adjusted to 5.9 by H3PO4 and KOH. 0.5 ml of each solution was introduced into dialysis bag (Specta/PorⓇDialysis membrane, MWCO 25000, flat width 12 mm). The bags were submerged into a beaker with 100 ml 0.1% ascorbic acid solution adjusted to pH 5.9 by NaOH and HCl. The solutions were held at 34° C. (±1) with constant stirring. 100 µl samples were taken at time points 0, 10, 25, 40, 60, 90, 120, 150 and 180 min into a vial containing 1 µl of 10%^v/v mercaptoethanol ethanolic solution. 100 µl of fresh receiving solution was added to the beaker to retain sink conditions. […]
2.1.4 Chromatographic analysis of in-vitro samples: The samples were injected into Waters 2695 Separation Module HPLC system coupled with Waters 2475 Multi Gamma Fluorescence Detector (Waters Co., MA, USA), into BDS Hypersil Cyano (Phenomenex, CA, USA) column (5 µm, 100 Å, 250 mm × 4.6 mm) protected by Hypersil Cyano (Phenomenex, CA, USA) pre-column (5 µm, 4 mm × 10 mm). […] Linearity curve (2.5-250 µg/ml, R^2>0.997) was performed before the batch of samples and used for quantification.

[11] = Ex-vivo permeability of APO, MTP and ATN in Ussing diffusion chamber; format: in vitro ADME, pig; conditions: pH 7.4 with addition of 10% v/v NLF
[12] = Simulation to human plasma levels from ex-vivo Papp
Description: The flux (Jss) of the test substance via the buccal mucosa is calculated by Eq. 6:
Simulation of blood levels at steady state (Css) of the substances if administered in-vivo is calculated by Eq. 7:
where CL is the pharmacokinetic parameter of total clearance of the tested substance in-vivo.
Application area (A) was 50 cm^2 which corresponds to buccal area in humans.

CN1CCc2cccc3c2[C@H]1Cc1ccc(O)c(O)c1-3 [APO, apomorphine]
Papp lower at pH 5.9 than at pH 7.4 [1]: 6 fold
Papp at […] ([1]; female, pig, pH 7.4, read-out: Apparent permeability (Papp)): 3.13 ×10⁻⁶ cm/s
Papp ([1]; female, pig, pH 7.4 with 3.33% v/v of 1:1 ethanol: propylene glycol solution, read-out: Apparent permeability (Papp)): 11.6 ×10⁻⁶ cm/s
Papp at 0.1 mM ([1]; female, pig, simulated saliva pH 5.9, mean (±SD), n=3, read-out: Apparent permeability (Papp)): 0.51 ×10⁻⁶ cm/s
Papp at 0.1 mM ([1]; female, pig, simulated saliva pH 7.4, standard 0.1 mM, mean (±SD), n=3, read-out: Apparent permeability (Papp)): 3 ×10⁻⁶ cm/s
Apparent permeability (Papp) ([1]; pH 7.4 with 3.33% v/v of 1:1 ethanol: propylene glycol solution): 11.63 10^-6 cm/sec
lag-time ([1]; pH 7.4 without 10% v/v NLF): ~ 1 hour
Apparent permeability (Papp) ([1]; simulated saliva pH 7.4, standard 0.1 mM, mean (±SD), n=3): 3.00 (0.26) 10^-6 cm/sec
ex-vivo predicted Css lower than in-vivo Css [2]: 4 times
Jss calculated ([2]; pH 5.9, 40 mg/ml APO in hydrogel, Eq. 3): 0.073 mg/(cm^2*h)
Css calculated from ex-vivo Papp ([2]; pig of 43 kg, 4.74 cm^2, Eq. 2): 0.59 ng/mL
clearance [3]: 153 mL/min/kg
Vd ([3]; read-out: volume of distribution): 3.3 L/kg
Diastolic blood press (mmHg) [4]: 43.1 (32 - 55) mmHg
Heart rate (beats/min) [4]: 95.2 (74 - 120) beats/min
O2 saturation (%) [4]: 97.7 (95 - 100) %
Respiration rate kept at (min^-1) [4]: 12.2 (11- 13) min^-1
Systolic blood press (mmHg) [4]: 81.7 (72 - 101) mmHg
Rectal temp (°C) ([4]; four pigs): 38.2 (37.4 - 39.4) °C
log P [5]: 2.0
CL ([6]; human, literature): 50 to 83 mL/min/kg
Vd ([6]; human, literature): 1 to 2 L/kg
excreted unchanged to urine ([6]; humans): up to 4%
APO in the plasma ([7]; buccal solution, three anesthetized rats, 8 h): not detected
APO concentration in the solution inside the delivery device at 8 h vs initial ([7]; rats): did not change
calculated Css [8]: 2.3 ng/mL
AUC(0-inf) [9]: 107 ng·h/mL
Vd [9]: 6.6 L/kg
clearance [9]: 218 mL/min/kg
time at which all APO dose was released [10]: 1.5 h
lag-time [11]: 3 h
Jss calculated (mg/(cm^2*h)) ([12]; 1:1 ethanol: propylene glycol, 20 mg/ml): 0.84 mg/(cm^2*h)
Jss calculated (mg/(cm^2*h)) ([12]; pH 5.9, 20 mg/ml): 0.04 mg/(cm^2*h)
Jss calculated (mg/(cm^2*h)) ([12]; pH 7.4, 20 mg/ml): 0.22 mg/(cm^2*h)
